test system: NCI-H1373 cells; experiment: Inhibition of cancer cell growth in NCI-H1373 cells (Cell-titer Glo, 6 days); format: cell-based; settings: Homo sapiens, NCI-H1373, 144 h, read-out: H1373 Cell Proliferation IC50
Procedure: Biological Assay Example B: Inhibition of cancer cell growth in NCI-H1373 cells by PARP7 inhibitors
NCI-H1373 cells were cultured in RPMI 1640 medium supplemented with 10% fetal bovine serum, 100 U/mL penicillin and 100 ug/mL streptomycin in a 37° C., 5% CO2 incubator. Fifteen hundred cells were seeded into each well of 96-well plate in RPMI1640 medium containing 10% fetal bovine serum and incubated overnight. Serial diluted compounds for each well were added at a final DMSO concentration of 0.5% and a day zero plate was collected for analysis. Compounds were incubated with the cells for 6 days. Cell growth was assessed using Cell-titer Glo reagent (Promega #G^7572). The luminescence signal was collected on Tecan Spark plate reader. Cell growth is determined by correcting for the cell count on day zero. Inhibition rate is calculated with the formula of % inhibition=100*(DMSO control-compounds)/(DMSO control-Blank). Cell growth inhibition IC50 is calculated with the equation of Y-Bottom+ (Top-Bottom)/(1+10^((LogIC50−X) *Hill Slope)).

IC50 [nM] | SMILES
100 to 1000 | N#Cc1cnc(N2CCN(C(=O)c3cncc(Oc4n[nH]c(=O)c(C(F)(F)F)c4N4CC5(C4)CC(F)(F)C5)c3)CC2)nc1 [Compound 236]
< 100 | O=C(c1cc(Oc2n[nH]c(=O)c(C(F)(F)F)c2N2CC3(CCC3)C2)ccn1)N1CCN(c2ncc(C(F)(F)F)cn2)CC1 [Compound 229]
100 to 1000 | Cc1c(Oc2cc(C(=O)N3CCN(c4ncc(C(F)(F)F)cn4)CC3)ccc2F)n[nH]c(=O)c1C(F)(F)F [Compound 63]
100 to 1000 | Cc1c(N2C[C@@H](CC(=O)N3CCN(c4ncc(C(F)(F)F)cn4)CC3)O[C@H](C)C2)n[nH]c(=O)c1C(F)(F)F (single isomer, unassigned) [Compound 43]
100 to 1000 | N#Cc1ccc(N2CCN(C(=O)c3cccc(Oc4n[nH]c(=O)c(C(F)(F)F)c4N4CC5(CCCO5)C4)c3)CC2)nc1 [Compound 223]
> 1000 | O=C(C[C@H]1CN(c2cc(C(F)(F)F)c(=O)[nH]n2)c2ccccc2O1)N1CCN(c2ncc(C(F)(F)F)cn2)CC1 [Compound 35]
< 100 | O=C(CO[C@@H]1CCNc2c1n[nH]c(=O)c2C(F)(F)F)N1CCN(c2ncc(C(F)(F)F)cn2)CC1 (single isomer, unassigned) [Compound 2]
100 to 1000 | O=C(COC1CCNc2c1n[nH]c(=O)c2C(F)(F)F)N1CCN(c2ncc(C(F)(F)F)cn2)CC1 (racemic) [Compound 1]
< 100 | O=C(c1cc(Oc2n[nH]c(=O)c(C(F)(F)F)c2N2CC3(CCC3)C2)ccn1)N1CCN(c2cnc(C(F)(F)F)cn2)CC1 [Compound 272]
< 100 | O=C(CC1CN(c2cc(C(F)(F)F)c(=O)[nH]n2)c2cc(C(F)F)ccc2O1)N1CCN(c2cnc(C(F)(F)F)cn2)CC1 (single isomer, unassigned) [Compound 145]
> 1000 | CNC(=O)c1ccc2c(c1)N(c1cc(C(F)(F)F)c(=O)[nH]n1)CC(CC(=O)N1CCN(c3ncc(C(F)(F)F)cn3)CC1)O2 (single isomer, unassigned) [Compound 324]
100 to 1000 | Cc1c(Oc2cccc(C(=O)N3CCN(c4ccc(C#N)cn4)CC3)c2)n[nH]c(=O)c1C(F)(F)F [Compound 27]
< 100 | N#Cc1ccc2c(c1)N(c1cc(C(F)(F)F)c(=O)[nH]n1)CC(CC(=O)N1CCN(c3ncc(C4CC4)cn3)CC1)O2 (single isomer, unassigned) [Compound 316]
100 to 1000 | O=C(c1cncc(Oc2n[nH]c(=O)c(C(F)(F)F)c2N2CC(C3CC3)C2)c1)N1CCN(c2ncc(Cl)cn2)CC1 [Compound 280]
100 to 1000 | COC1CC(Nc2c(Oc3cccc(C(=O)N4CCN(c5ncc(C(F)(F)F)cn5)CC4)c3)n[nH]c(=O)c2C(F)(F)F)C1 (stereo not shown) [Compound 168]
< 100 | N#Cc1cnc(N2CCN(C(=O)c3cccc(Oc4n[nH]c(=O)c(C(F)(F)F)c4N4CC5(CCC5)C4)c3)CC2)nc1 [Compound 179]
< 100 | C[C@@H]1CN(C(=O)c2cc(Oc3n[nH]c(=O)c(C(F)(F)F)c3N3CC4(CCC4)C3)ccn2)CCN1c1cnc(C(F)(F)F)cn1 [Compound 353]
< 100 | O=C(CC[C@@H]1CCCN1c1n[nH]c(=O)c2ccccc12)N1CCN(c2ncc(C(F)(F)F)cn2)CC1 [Compound 48]
> 1000 | O=C(COC1CCOc2c1n[nH]c(=O)c2C(F)F)N1CCN(c2ncc(C(F)(F)F)cn2)CC1 (single isomer, unassigned) [Compound 114]
> 1000 | N#Cc1ccc2c(c1)N(c1cc(C(F)(F)F)c(=O)[nH]n1)CC(CC(=O)N1CCN(c3ccc(C(F)(F)F)cn3)CC1)O2 (single isomer, unassigned) [Compound 346]

biological target: T1, PARP7 (Homo sapiens, UniProt Q7Z3E1); experiment: PARP7 TR-FRET assay (binding, displacement of biotinylated Probe A); settings: 6 nM PARP7, 2 nM Probe A, 25° C., 30 min
T1 sequence (Q7Z3E1 1-657): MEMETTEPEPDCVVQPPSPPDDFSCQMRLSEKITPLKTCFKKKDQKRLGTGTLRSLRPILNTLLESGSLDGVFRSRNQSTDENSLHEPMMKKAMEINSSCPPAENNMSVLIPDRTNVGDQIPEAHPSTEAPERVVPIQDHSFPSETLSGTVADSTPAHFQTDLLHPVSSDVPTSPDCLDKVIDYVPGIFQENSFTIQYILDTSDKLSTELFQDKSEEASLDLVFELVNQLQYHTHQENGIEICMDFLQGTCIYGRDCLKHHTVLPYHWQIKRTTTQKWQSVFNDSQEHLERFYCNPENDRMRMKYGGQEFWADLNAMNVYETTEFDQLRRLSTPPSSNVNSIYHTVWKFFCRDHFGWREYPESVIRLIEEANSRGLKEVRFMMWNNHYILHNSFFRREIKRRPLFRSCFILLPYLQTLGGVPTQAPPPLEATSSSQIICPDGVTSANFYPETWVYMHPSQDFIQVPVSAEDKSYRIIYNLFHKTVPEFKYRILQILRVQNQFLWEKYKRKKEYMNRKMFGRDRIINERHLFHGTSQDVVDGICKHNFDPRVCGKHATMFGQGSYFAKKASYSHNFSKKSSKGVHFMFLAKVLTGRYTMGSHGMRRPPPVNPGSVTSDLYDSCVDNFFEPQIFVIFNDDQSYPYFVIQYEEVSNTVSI
Procedure, shortened: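 His-tagged PARP7 at 6 nM was preincubated with compound and 2 nM biotinylated Probe A for 30 min at 25° C (HEPES pH 8.0, NaCl, BSA, DTT, Tween20). Europium-streptavidin/ULight-anti-His FRET was read as the 665/615 nm ratio after a further 30 min. IC50 was fitted from % inhibition normalised to vehicle and blank.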

IC50 [nM] | SMILES
< 100 | N#Cc1cnc(N2CCN(C(=O)c3cncc(Oc4n[nH]c(=O)c(C(F)(F)F)c4N4CC5(C4)CC(F)(F)C5)c3)CC2)nc1 [Compound 236]
< 100 | O=C(c1cc(Oc2n[nH]c(=O)c(C(F)(F)F)c2N2CC3(CCC3)C2)ccn1)N1CCN(c2ncc(C(F)(F)F)cn2)CC1 [Compound 229]
< 100 | Cc1c(Oc2cc(C(=O)N3CCN(c4ncc(C(F)(F)F)cn4)CC3)ccc2F)n[nH]c(=O)c1C(F)(F)F [Compound 63]
< 100 | Cc1c(N2C[C@@H](CC(=O)N3CCN(c4ncc(C(F)(F)F)cn4)CC3)O[C@H](C)C2)n[nH]c(=O)c1C(F)(F)F (single isomer, unassigned) [Compound 43]
< 100 | N#Cc1ccc(N2CCN(C(=O)c3cccc(Oc4n[nH]c(=O)c(C(F)(F)F)c4N4CC5(CCCO5)C4)c3)CC2)nc1 [Compound 223]
100 to 1000 | O=C(C[C@H]1CN(c2cc(C(F)(F)F)c(=O)[nH]n2)c2ccccc2O1)N1CCN(c2ncc(C(F)(F)F)cn2)CC1 [Compound 35]
< 100 | O=C(CO[C@@H]1CCNc2c1n[nH]c(=O)c2C(F)(F)F)N1CCN(c2ncc(C(F)(F)F)cn2)CC1 (single isomer, unassigned) [Compound 2]
< 100 | O=C(COC1CCNc2c1n[nH]c(=O)c2C(F)(F)F)N1CCN(c2ncc(C(F)(F)F)cn2)CC1 (racemic) [Compound 1]
< 100 | O=C(c1cc(Oc2n[nH]c(=O)c(C(F)(F)F)c2N2CC3(CCC3)C2)ccn1)N1CCN(c2cnc(C(F)(F)F)cn2)CC1 [Compound 272]
< 100 | O=C(CC1CN(c2cc(C(F)(F)F)c(=O)[nH]n2)c2cc(C(F)F)ccc2O1)N1CCN(c2cnc(C(F)(F)F)cn2)CC1 (single isomer, unassigned) [Compound 145]
< 100 | CNC(=O)c1ccc2c(c1)N(c1cc(C(F)(F)F)c(=O)[nH]n1)CC(CC(=O)N1CCN(c3ncc(C(F)(F)F)cn3)CC1)O2 (single isomer, unassigned) [Compound 324]
< 100 | Cc1c(Oc2cccc(C(=O)N3CCN(c4ccc(C#N)cn4)CC3)c2)n[nH]c(=O)c1C(F)(F)F [Compound 27]
< 100 | N#Cc1ccc2c(c1)N(c1cc(C(F)(F)F)c(=O)[nH]n1)CC(CC(=O)N1CCN(c3ncc(C4CC4)cn3)CC1)O2 (single isomer, unassigned) [Compound 316]
< 100 | O=C(c1cncc(Oc2n[nH]c(=O)c(C(F)(F)F)c2N2CC(C3CC3)C2)c1)N1CCN(c2ncc(Cl)cn2)CC1 [Compound 280]
< 100 | COC1CC(Nc2c(Oc3cccc(C(=O)N4CCN(c5ncc(C(F)(F)F)cn5)CC4)c3)n[nH]c(=O)c2C(F)(F)F)C1 (stereo not shown) [Compound 168]
< 100 | N#Cc1cnc(N2CCN(C(=O)c3cccc(Oc4n[nH]c(=O)c(C(F)(F)F)c4N4CC5(CCC5)C4)c3)CC2)nc1 [Compound 179]
< 100 | C[C@@H]1CN(C(=O)c2cc(Oc3n[nH]c(=O)c(C(F)(F)F)c3N3CC4(CCC4)C3)ccn2)CCN1c1cnc(C(F)(F)F)cn1 [Compound 353]
< 100 | O=C(CC[C@@H]1CCCN1c1n[nH]c(=O)c2ccccc12)N1CCN(c2ncc(C(F)(F)F)cn2)CC1 [Compound 48]
> 1000 | O=C(COC1CCOc2c1n[nH]c(=O)c2C(F)F)N1CCN(c2ncc(C(F)(F)F)cn2)CC1 (single isomer, unassigned) [Compound 114]
< 100 | N#Cc1ccc2c(c1)N(c1cc(C(F)(F)F)c(=O)[nH]n1)CC(CC(=O)N1CCN(c3ccc(C(F)(F)F)cn3)CC1)O2 (single isomer, unassigned) [Compound 346]
